Ends that are not written are not given here.
Legend:
[1] = tested on: retinoid X receptor (RXR); assay: Etoposide-induced apoptosis in HeLa cells transfected with RXR
[2] = tested on: osteocytic cell line MLO-Y4; assay: Apoptosis of MLO-Y4 osteocytic cells (trypan blue); type: cell-based; conditions: inhibitor 30 min prior to E2 or DHT; etoposide 6 hours
[3] = tested on: ERK1/2; assay: ERK phosphorylation in MLO-Y4 cells (Western blot); type: cell-based; conditions: inhibitor 25 min, then 5 min E2 or DHT
Experimental: Western blot analysis. The phosphorylation status of ERK1/2 was analyzed by immunoblotting using a mouse monoclonal antibody recognizing tyrosine phosphorylated ERK1/2, or a rabbit polyclonal antibody recognizing total ERK1/2, followed by incubation with either an anti-mouse or an anti-rabbit antibody conjugated with horseradish peroxidase (Santa Cruz Biotechnology).

[4] = tested on: E domain of the ER; assay: Etoposide-induced apoptosis in HeLa cells transfected with the E domain of ERα; type: cell-based, human
Experimental: (§1) DNA constructs. […] Bio. […] The sequence for peptide αII is […] (SEQ ID NO.: 1). […] (SEQ ID NO.: 3). The sequence for GRIP is […] […] […] (SEQ ID NO.: 4). […] The forward primer contained the restriction site for SalI and the ERα Kozak sequence and the reverse primer contained the BamH1 restriction site. Amplified PCR products were subcloned into the SalI/BamH1 restriction site of pCMV.
(§2) Transient transfections. HeLa cells were plated at 5×10^4/cm^2 and after 16-24 hours were transfected with a total amount of 3 μg of DNA using Lipofectamine (Life Technologies Inc). Following a 4-6 hours of incubation, the transfection mix was replaced with fresh medium containing 10% charcoal-stripped serum and treatments were initiated.

[5] = target: T1, AR (Homo sapiens, UniProt P10275); assay: Etoposide-induced apoptosis in HeLa cells transfected with AR
T1 sequence (P10275 1-920): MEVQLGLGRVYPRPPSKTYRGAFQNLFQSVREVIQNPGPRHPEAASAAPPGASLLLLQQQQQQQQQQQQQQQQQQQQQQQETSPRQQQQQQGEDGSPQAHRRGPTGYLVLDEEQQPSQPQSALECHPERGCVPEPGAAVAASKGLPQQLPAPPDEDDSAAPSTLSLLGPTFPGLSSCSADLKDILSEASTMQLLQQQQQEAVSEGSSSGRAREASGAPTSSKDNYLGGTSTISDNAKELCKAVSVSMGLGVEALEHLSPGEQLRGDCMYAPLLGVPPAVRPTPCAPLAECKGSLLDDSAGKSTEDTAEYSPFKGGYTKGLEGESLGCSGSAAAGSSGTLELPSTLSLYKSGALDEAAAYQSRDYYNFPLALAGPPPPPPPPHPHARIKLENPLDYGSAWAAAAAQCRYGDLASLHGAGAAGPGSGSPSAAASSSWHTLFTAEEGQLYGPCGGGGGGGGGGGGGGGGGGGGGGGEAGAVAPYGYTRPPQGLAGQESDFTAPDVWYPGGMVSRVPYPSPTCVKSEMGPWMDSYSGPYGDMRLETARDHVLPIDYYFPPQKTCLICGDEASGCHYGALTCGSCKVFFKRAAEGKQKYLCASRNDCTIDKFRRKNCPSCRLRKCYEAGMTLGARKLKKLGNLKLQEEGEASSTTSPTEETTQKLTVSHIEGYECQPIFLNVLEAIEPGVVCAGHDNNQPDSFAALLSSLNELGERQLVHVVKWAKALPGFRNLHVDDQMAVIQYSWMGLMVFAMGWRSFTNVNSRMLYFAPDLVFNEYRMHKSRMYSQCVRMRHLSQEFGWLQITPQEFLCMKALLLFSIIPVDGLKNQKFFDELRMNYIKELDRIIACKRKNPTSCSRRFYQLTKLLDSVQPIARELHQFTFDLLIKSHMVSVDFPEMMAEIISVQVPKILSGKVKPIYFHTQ

[6] = target: T2, ERα (Homo sapiens, UniProt P03372); assay: Etoposide-induced apoptosis in HeLa cells transfected with ERα
T2 sequence (P03372 1-595): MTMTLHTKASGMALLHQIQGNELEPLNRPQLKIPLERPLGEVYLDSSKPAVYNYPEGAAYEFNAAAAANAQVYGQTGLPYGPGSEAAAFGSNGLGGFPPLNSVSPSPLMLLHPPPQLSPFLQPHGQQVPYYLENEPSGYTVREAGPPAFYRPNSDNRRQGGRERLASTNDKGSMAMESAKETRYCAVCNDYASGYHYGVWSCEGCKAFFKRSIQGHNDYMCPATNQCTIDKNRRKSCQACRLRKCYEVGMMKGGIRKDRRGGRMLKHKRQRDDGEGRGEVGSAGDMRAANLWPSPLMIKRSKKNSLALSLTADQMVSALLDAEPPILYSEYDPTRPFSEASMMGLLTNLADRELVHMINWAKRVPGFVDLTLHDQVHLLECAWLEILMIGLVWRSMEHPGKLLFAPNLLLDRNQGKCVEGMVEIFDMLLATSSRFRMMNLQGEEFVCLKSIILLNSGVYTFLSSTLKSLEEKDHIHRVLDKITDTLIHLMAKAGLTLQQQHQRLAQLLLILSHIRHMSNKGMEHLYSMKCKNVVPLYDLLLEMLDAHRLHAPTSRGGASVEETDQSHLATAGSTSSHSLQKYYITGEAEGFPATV

[7] = tested on: calvaria-derived murine osteoblastic cells; assay: Apoptosis of calvaria-derived osteoblastic cells (trypan blue); conditions: etoposide-induced apoptosis
[8] = target: T2, ERα; assay: C3-luc transcription in HeLa cells transfected with ERα; type: cell-based; design: expression vectors encoding the full length ERα or its E domain; expressed in transfected cells; host or cells: HeLa; conditions: HeLa with C3-luc and ERα
Experimental: A. For C3-mediated transcription, HeLa cells were transfected with C3-luc and ERα, and were treated with the indicated concentrations of an estren or a pyrazole. Bars represent the mean±SD of the relative luciferase units (RLU) normalized for β-galactosidase activity. p<0.05 versus cells transfected with empty vector (ev), by ANOVA. The anti-apoptotic activity of the estren and the pyrazole was evaluated in calvaria-derived osteoblasts as described in FIG. 1B. * p<0.05 versus cells not treated with etoposide by ANOVA. B. MLO-Y4 cells were incubated for 5, min with the indicated concentrations of the different ligands and ERK phosphorylation was assessed as in FIG. 4A.
DNA constructs. Reporter plasmids carrying the 2.25 Kb of the human IL-6 promoter, 3 copies of the vitellogenin ERE sequences, or the complement 3 promoter driving the firefly luciferase gene (IL-6-luc, ERE-luc, and C3-luc, respectively) were used to assay transcriptional effects of the steroids. The expression plasmids of ER peptide antagonists carrying either αII, or two copies of 293 (2x293) , or two copies of F6 (2xF6) or GRIP fused to the GAL4 DNA binding domain driven by the SV40 promoter have been described previously (Norris, J. D. et al. (1999) Science 285, 744-746). The sequences of the peptides are disclosed in Chang et al. (1999) Mol. Cell. Bio. 19:8226-8239 which is incorporated herein in its entirety. […]

[9] = target: T3, ERβ (Homo sapiens, UniProt Q92731); assay: ERE-luc transcription in HeLa cells transfected with ERβ; type: cell-based; design: expressed in transfected cells; host or cells: HeLa; conditions: ERβ carrying HeLa cells, 10^−8 M E2
Text: (§3) A. HeLa cells were transiently transfected with the ERα expression vector alone or together with a vector carrying a fusion of the α-II peptide with the GAL4 DNA binding domain driven by the SV40 promoter. In addition, cells were transfected with ERE-luc or IL-6-luc for the transcription studies; or with EGFP-nuc for the apoptosis experiments. […] B. HeLa cells were transfected with ERα or ERβ alone or together with expression vectors carrying 2X293 or 2XF6 peptides. […] C. HeLa cells were transfected with a vector carrying the GRIP peptide alone or together with ERα.
as §1, §2

[10] = target: T3, ERβ; assay: IL-6-luc transcription in HeLa cells transfected with ERβ; type: cell-based; design: expressed in transfected cells; host or cells: HeLa; conditions: ERβ carrying HeLa cells, 10^−8 M E2
Text: as §3, §1, §2

[11] = target: T3, ERβ; assay: Etoposide-induced apoptosis in HeLa cells transfected with ERβ; conditions: peptide co-transfected, 10^−8 M E2
[12] = target: T2, ERα; assay: ERE-luc transcription in HeLa cells transfected with ERα; type: cell-based; design: expression vectors encoding the full length ERα or its E domain; expressed in transfected cells; host or cells: HeLa; conditions: ERα carrying HeLa cells, 10^−8 M E2
Text: as §3, §1, §2

[13] = target: T2, ERα; assay: IL-6-luc transcription in HeLa cells transfected with ERα; type: cell-based; design: expression vectors encoding the full length ERα or its E domain; expressed in transfected cells; host or cells: HeLa; conditions: ERα carrying HeLa cells, 10^−8 M E2
Text: as §3, §1, §2

T3 sequence (Q92731 whole entry, species assumed, the tested form may be a part): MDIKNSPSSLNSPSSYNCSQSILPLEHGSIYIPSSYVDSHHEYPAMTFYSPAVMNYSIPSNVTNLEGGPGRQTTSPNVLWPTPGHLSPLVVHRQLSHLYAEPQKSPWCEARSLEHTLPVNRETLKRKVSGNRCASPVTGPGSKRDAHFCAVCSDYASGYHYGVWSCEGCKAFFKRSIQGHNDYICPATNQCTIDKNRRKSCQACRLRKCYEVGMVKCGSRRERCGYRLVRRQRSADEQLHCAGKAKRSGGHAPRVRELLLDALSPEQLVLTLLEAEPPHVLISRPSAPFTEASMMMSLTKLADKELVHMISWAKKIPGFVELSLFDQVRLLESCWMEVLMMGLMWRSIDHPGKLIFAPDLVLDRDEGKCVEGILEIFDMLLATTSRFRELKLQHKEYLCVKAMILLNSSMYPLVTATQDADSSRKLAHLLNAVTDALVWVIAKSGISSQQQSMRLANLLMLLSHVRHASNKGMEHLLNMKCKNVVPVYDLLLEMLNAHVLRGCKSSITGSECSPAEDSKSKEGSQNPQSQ

Q: How did the “prevention of etoposide-induced apoptosis” value [1] turn out when `C=C1/C(=C\C=C2/CCC[C@]3(C)[C@@H]([C@H](C)CCCC(C)(C)O)CC[C@@H]23)C[C@@H](O)C[C@@H]1O` [1,25(OH)2D3, 1,25-dihydroxy-Vitamin D3] was run?
A: The value was “prevented apoptosis”.

Q: With `COc1cccc(-c2cc(=O)c3ccccc3o2)c1N` [PD98059] as the compound, how does the “effect of inhibitor on the anti-apoptotic effect of E2 and DHT” value [2] read?
A: Its value is “completely abrogated”.

Q: And the “effect of inhibitor on induction of ERK phosphorylation by E2 or DHT” value [3]?
A: Its value is “blocked”.

Q: What about the “effect of inhibitor on anti-apoptotic activity, compared with full length ERα” value [4] of the same compound?
A: Its value is “exactly the same effects”.

Q: And the “effect of antagonist/inhibitor on the anti-apoptotic effect of E2 or DHT” value [5]?
A: The value was “abrogated”.

Q: And the “effect of antagonist/inhibitor on the anti-apoptotic effect of E2 or DHT” value ([6]; HeLa transfected with ERα)?
A: The value was “abrogated”.

Q: For `c1cn[nH]c1` [pyrazole], which “anti-apoptotic efficacy on primary calvaria cells” value [7] is on record?
A: Its value is “minimal anti-apoptotic efficacy”.

Q: And the “transcriptional activity on the C3 gene (C3-luc)” value [8]?
A: The value was “potent transcriptional activity”.

Q: For “F6: peptide GHEPLTLLERLLMDDKQAV (SEQ ID NO.: 3) interacting with both ERα and ERβ; two copies expressed as GAL4 fusion (also: two copies fused to GAL4 DNA binding domain)”, which “effect of peptide on E2-induced ERE-Luc transcription” value [9] is on record?
A: Its value is “blocked”.

Q: What about the “effect of peptide on E2 effect on IL-6-Luc transcription” value [10] of the same compound?
A: Its value is “blocked”.

Q: And the “effect of peptide on the anti-apoptotic activity of ERα (E2)” value ([6]; peptide co-transfected, 10^−8 M E2)?
A: The value was “blocked”.

Q: And the “effect of peptide on the anti-apoptotic activity of ERβ (E2)” value [11]?
A: The value was “blocked”.

Q: What about the “effect of peptide on E2-induced ERE-Luc transcription” value [12] of the same compound?
A: The value was “blocked”.

Q: What about the “effect of peptide on E2-induced decrease in IL-6-Luc transcription” value [13] of the same compound?
A: Its value is “blocked”.

Q: Which results are given for estren?
A: anti-apoptotic efficacy on primary calvaria cells [7]: potent anti-apoptotic efficacy; transcriptional activity on the C3 gene (C3-luc) [8]: no transcriptional activity

From patent US20020137209A1, “Methods of dissociating nongenotropic from genotropic activity of steroid receptors” (priority 2000, published 2002)
